Test results published in patent US10966943B2, “Methods and compositions for treatment of asthma or parkinson's disease” (InnoPharmaScreen Inc., priority 2018, dated 2021).
“Also recorded” adds a separate entry of the source.

Tests used:
[1] = test system: IL-8; test: ELISA of IL-8 in A549 cells induced by LPS or IL-1beta; type: cell-based, human; settings: dose-dependent
Protocol: (§1) A549 cells (1×10^5/well) were seeded on a 96-well plate for 16 hrs. After starvation for 24 hrs., the cells were pretreated with LPS or IL-1beta for 4 hrs. The cells were then treated with IPS-07004 for 24 hrs. in a dose-dependent manner. Cytokines levels (IL-6 and IL-8) in media were analyzed in accordance with the manufacturer's specification (BD Biosciences Pharmingen, San Diego, Calif., USA).
(§2) To assess whether IPS-07004 inhibits the expression of IL-6 and IL-8, which play a critical role in asthma pathology, ELISA of the cytokines in A549 cells was employed.

[2] = Mast cell number and serum IgE level; type: in vivo; settings: FIG. 8
[3] = test system: TSLP (Thymic Stromal Lymphopoietin); test: TSLP expression in DNCB mice; type: in vivo; settings: DNCB (2,4-dinitrochlorobenzene) mice; FIG. 7
[4] = test system: A549 lung carcinoma cells; test: In vitro cell viability assay (MTT); type: cell-based, human; settings: IPS-07004 for 24 hrs, FIG. 1
Protocol: A549 lung carcinoma cells (1×10^3/well) were seeded on a 96-well plate for 16 hrs. After starvation for 24 hrs., the cells were pretreated with LPS or IL-1b for 4 hrs. The cells were then treated with IPS-07004 for 24 hrs. in a dose-dependent manner. After 48 hrs. of incubation, MTT [3-(4,5-dimethylthiazol-2-yl)-2,5-diphenyl-tetrazolium bromide] solution (5 mg/ml) was added to each well in an amount of 1/10 of total volume, and the cells were incubated for 2 hrs. at 37° C.
To examine the survival rate for A549 cells treated with IPS-07004, an in vitro cell viability assay was performed using MTT.

[5] = target: T1, human Caspase-1 (Homo sapiens, UniProt P29466); test: Caspase-1 activity in HMC-1 cell-based assay; settings: HMC-1 cells; FIG. 7, FIG. 9
T1 construct: endogenous in cells; host or cells: HMC-1 (human mast cell line)
T1 sequence (P29466 120-404): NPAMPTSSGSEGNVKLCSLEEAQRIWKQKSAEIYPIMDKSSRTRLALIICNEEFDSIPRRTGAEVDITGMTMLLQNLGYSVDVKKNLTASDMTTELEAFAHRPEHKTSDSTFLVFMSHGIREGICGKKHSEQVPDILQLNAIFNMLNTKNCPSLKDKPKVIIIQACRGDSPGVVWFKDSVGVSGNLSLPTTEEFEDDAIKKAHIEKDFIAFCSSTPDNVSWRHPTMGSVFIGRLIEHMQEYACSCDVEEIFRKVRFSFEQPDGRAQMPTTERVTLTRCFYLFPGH
Description: Using HMC-1 (human mast cell line) cell-based assay, IPS-07005 ((IPS-07004+Montelukast) inhibited the activity of Caspase-1, a critical component of inflammasome, to suppress the conversion of Pro-TSLP, IL-1beta, and -IL-18 to active forms as shown in FIG. 9.

[6] = test system: OVA-challenged mice; test: OVA-induced asthma in mice (BAL fluid, IgE, lung histology); type: in vivo
Protocol: 25 mg Ovalbumin (OVA) and 1 mg aluminum hydroxide hydrate (AlOH3) were dissolved in […] of sterile saline solution and sensitized by intraperitoneal administration at 0 and 21 days. At the end of the observation period, all living animals were anesthetized using Isoflurane, and blood was collected from the vena cava/abdominal aorta. Lungs are removed and washed with sterile saline solution. […] of sterile saline was filled in a 1 mL syringe, and the injection and recovery were repeated three times. The washed solution was lightly centrifuged (300 rpm, 10 minutes) and the supernatant was frozen and used for analysis of CXCL1 (ab216951, Abcam PLC) IL-17A (ab199081, Abcam PLC) and CCL3 (ab100726, Abcam PLC). The precipitate was resuspended in the same amount of sterile saline solution and used for eosinophil count and total cell count. The collected blood was left at room temperature for 30 minutes and centrifuged at 3,000 rpm for 20 mins. to separate serum and used for total IgE and Ova-specific IgE analysis. Histopathological examination was performed using lung tissue fixed in formalin. Lung tissues extracted at autopsy were placed in a cassette and submerged in 10% Neutral buffered formalin (10% NBF) at least 20 times the tissue volume. After fixation, the tissue was cut to about 4 mm in thickness and fabricated into paraffin blocks after general tissue treatment and embedding. […]

[7] = test system: IL-6; test: ELISA of IL-6 in A549 cells induced by LPS or IL-1beta; type: cell-based, human; settings: dose-dependent
Protocol: as §1, §2

[8] = test system: MPTP-injected mice; test: MPTP-induced Parkinson's disease mice (pole test, TH, IL-1b); type: in vivo
Protocol: For 1-methyl-4-phenyl-1,2,3,6-tetrahydropyridine (MPTP) intoxication, the mice received four intraperitoneal (i.p.) injections of MPTP-HCl (20 mg/kg, free base in saline; Sigma-Aldrich, St. Louis, Mo.) dissolved in PBS at 2 h intervals. Twelve hours after the last MPTP injection, the MPTP-injected mice were received IPS-07004, Montelukast, or IPS-07005 once daily through p.o. administrations.
To examine the effect of IPS-07004 on abnormal behavior of PD mice, Pole test (T-turn and T-LA time) was carried out. PD was induced in mice treated with MPTP (20 mg/kg, I.P) and the mice were administered with IPS-07004 at a dose of 10 mg/kg. And then pole test was performed in the mice. which can measure bradykinesia, a hallmark of Parkinson's disease. The T-turn measures the time the black mouse turns down from the top of the pole. IPS-07004 reduced the T-turn and T-LA time compared with MPTP-treated control group and L-Dopa-treated group, as shown in FIG. 18.

[9] = test system: TSLP (Thymic Stromal Lymphopoietin); test: TSLP expression in HMC-1 cells; type: cell-based, human; settings: FIG. 7
[10] = A549 cells induced by LPS, FIG. 2
[11] = MPTP (20 mg/kg, I.P) mice, 10 mg/kg, compared with MPTP-treated control group and L-Dopa-treated group, FIG. 18

Compound | expression level of IL-8 ([1]; A549 cells induced by IL-1beta) | expression level of IL-8 [1, 10] | mast cell number [2] | serum IgE level [2] | TSLP expression [3] | viability of A549 cells (MTT) ([4]; cells induced by IL-1beta) | viability of A549 cells (MTT) ([4]; cells induced by LPS) | Caspase-1 activity [5] | eosinophil number in BALF ([6]; compared with the OVA-challenged group, FIGS. 13B, 13C) | expression level of IL-6 ([7]; A549 cells induced by IL-1beta) | expression level of IL-6 [7, 10] | Pole test T-LA time [8, 11] | Pole test T-turn time [8, 11] | tyrosine hydroxylase (TH) level in striatum and Substantia nigra (immunohistochemistry) ([8]; PD mice brain, compared with MPTP-treated control group and L-Dopa-treated group, FIG. 19) | IL-1b expression in PD brain ([8]; PD mice, FIG. 20) | TSLP expression [9] | number of goblet cells (PAS staining of lung sections) ([6]; high dose of Montelukast, versus OVA-challenged group, FIGS. 15A and 15B)
[H]/N=C(\N/C(=N/[H])Nc1ccc(Cl)cc1)NC(C)C [IPS-07004, proguanil] | reduced | reduced | inhibitory effect | inhibitory effect | inhibitory effect | little or no effect | little or no effect | inhibitory effect; also recorded: inhibited | decreased | reduced | reduced | reduced | reduced | decreased | reduced | inhibitory effect | –
CC(C)(O)c1ccccc1CC[C@@H](SCC1(CC(=O)O)CC1)c1cccc(/C=C/c2ccc3ccc(Cl)cc3n2)c1 [Montelukast, montelukast] | – | – | – | – | – | – | – | – | – | – | – | – | – | – | – | – | significantly lower
